Laboratory results from the supplement of paper PMC11061612.

Assays:
Test in all cases: Bliss excess, mean over the matrix (fraction); higher = more synergy
[1] = tested on: NCI-H2731 (Mesothelioma)
Outline: (§1)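 Cell lines in DMEM/F12 or RPMI with 10% FBS were plated in 1536-well plates, held 24 hours at 37°C, 5% CO2, then given two-drug dose matrices for 72 hours (DMSO typically 0.2%). Viability was read by CellTiter-Glo 2.0 luminescence and scaled as inhibition from 0 (vehicle wells) to 1 (blank wells). Combination Emax is the second-highest inhibition in the matrix; Bliss excess is observed combination effect minus expected EA + EB − EA·EB, EA and EB being single-agent effects.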

[2] = tested on: NCI-H520 (Squamous Cell Lung Carcinoma)
Outline: as §1

[3] = tested on: IM-95 (Gastric Carcinoma)
Outline: as §1

[4] = tested on: ESO51 (Esophageal Adenocarcinoma)
Outline: as §1

[5] = tested on: COR-L279 (Small Cell Lung Carcinoma)
Outline: as §1

[6] = tested on: 8505C (Thyroid Gland Carcinoma)
Outline: as §1

[7] = tested on: SUP-B15 (B-Lymphoblastic Leukemia)
Outline: as §1

[8] = tested on: SU-DHL-5 (B-Cell Non-Hodgkin's Lymphoma)
Outline: as §1

[9] = tested on: MOG-G-CCM (Low Grade Glioma)
Outline: as §1

[10] = tested on: PC-3 (Prostate Carcinoma)
Outline: as §1

[11] = tested on: T-T (Esophageal Squamous Cell Carcinoma)
Outline: as §1

[12] = tested on: MN-60 (B-Lymphoblastic Leukemia)
Outline: as §1

[13] = tested on: KP-3 (Pancreatic Carcinoma)
Outline: as §1

[14] = tested on: NCI-H661 (Non-Small Cell Lung Carcinoma)
Outline: as §1

[15] = tested on: KYSE-270 (Esophageal Squamous Cell Carcinoma)
Outline: as §1

[16] = tested on: NCI-H929 (Plasma Cell Myeloma)
Outline: as §1

[17] = tested on: G-361 (Melanoma)
Outline: as §1

[18] = tested on: KU812 (Chronic Myelogenous Leukemia)
Outline: as §1

[19] = tested on: RPMI-8226 (Plasma Cell Myeloma)
Outline: as §1

[20] = tested on: KY821 (Acute Myeloid Leukemia)
Outline: as §1

Structure (SMILES) | Bliss excess [1] | Bliss excess [2] | Bliss excess [3] | Bliss excess [4] | Bliss excess [5] | Bliss excess [6] | Bliss excess [7] | Bliss excess [8] | Bliss excess [9] | Bliss excess [10] | Bliss excess [11] | Bliss excess [12] | Bliss excess [13] | Bliss excess [14] | Bliss excess [15] | Bliss excess [16] | Bliss excess [17] | Bliss excess [18] | Bliss excess [19] | Bliss excess [20]
Cc1cc2ncnn2cc1Nc1ncc2c(n1)n(C1CCOCC1)c(=O)n2C [AZD7648] + CCN(CCO)CCCOc1ccc2c(Nc3cc(CC(=O)Nc4cccc(F)c4)[nH]n3)ncnc2c1 [AZD2811] (first compound max 10 µM, 7x7, partner max 1 µM) | -0.0077 | 0.0195 | 0.0835 | -0.0098 | -0.0803 | 0.0059 | -0.0667 | -0.0094 | 0.0246 | -0.0346 | 0.0089 | -0.0061 | 0.0126 | 0.0564 | 0.0332 | -0.0223 | 0.0453 | 0.0578 | 0.0363 | 0.139
Cc1c2c(nn1C)CSCc1cc(n(C)n1)CSc1cc(c3ccccc3c1)OCCCc1c(C(=O)O)n(C)c3c-2c(Cl)ccc13 [AZD5991] + Cc1cc2ncnn2cc1Nc1ncc2c(n1)n(C1CCOCC1)c(=O)n2C [AZD7648] (first compound max 1 µM, 7x7, partner max 10 µM) | -0.0637 | -0.0453 | -0.0615 | -0.0216 | 0.0671 | -0.0125 | 0.0099 | -0.0377 | -0.0394 | -0.135 | 0.007 | 0.0011 | -0.0462 | -0.0546 | -0.0342 | 0.0091 | 0.0031 | -0.0046 | -0.0436 | -0.0302
NC1(C(=O)N[C@@H](CCO)c2ccc(Cl)cc2)CCN(c2ncnc3[nH]ccc23)CC1 [Capivasertib] + CC(C)n1c(=O)n(C)c2cnc3cc(F)c(-c4ccc(OCCCN5CCCCC5)nc4)cc3c21 [AZD1390] (first compound max 10 µM, 7x7, partner max 0.3 µM) | -0.0169 | -0.0559 | -0.0656 | -0.0416 | -0.0055 | -0.0376 | -0.0059 | -0.0114 | -0.0302 | -0.0345 | 0.0071 | -0.0685 | -0.0596 | -0.0692 | -0.0296 | -0.0187 | -0.0344 | -0.0037 | -0.0096 | -0.021
COc1cccc(OCCCN)c1-c1cc(Nc2cnc(C#N)cn2)n[nH]1 [Prexasertib] + CCc1c2c(nc3ccc(O)cc13)-c1cc3c(c(=O)n1C2)COC(=O)[C@]3(O)CC [SN-38] (first compound max 1 µM, 7x7, partner max 0.3 µM) | 0.0108 | -0.0483 | 0.0026 | -0.0376 | -0.0221 | -0.0559 | -0.0197 | 0.0023 | 0.0411 | -0.0185 | 0.12 | -0.0452 | 0.0321 | 0.0419 | 0.0028 | -0.0713 | -0.0219 | -0.124 | 0.0686 | -0.0235
COc1nnc2ccc(N3CCC(c4ccc(OCCN5CCN(C)C(=O)[C@H]5C)cc4)CC3)nn12 [AZD5153] + C[C@@H]1COCCN1C2=NC(=NC(=C2)C3(CC3)[S@](=N)(=O)C)C4=C5C=CNC5=NC=C4 [AZD6738] (first compound max 1 µM, 7x7, partner max 10 µM) | 0.0266 | 0.07 | 0.0268 | -0.0476 | -0.0233 | 0.0751 | -0.012 | 0.0107 | -0.0378 | 0.0034 | -0.0179 | -0.0638 | 0.0527 | 0.0929 | -0.0544 | -0.0817 | -0.0191 | -0.065 | -0.0505 | -0.0196
Cn1cnc2c(F)c(Nc3ccc(Br)cc3Cl)c(C(=O)NOCCO)cc21 [Selumetinib] + C=CCn1c(=O)c2cnc(Nc3ccc(N4CCN(C)CC4)cc3)nc2n1-c1cccc(C(C)(C)O)n1 [AZD1775] (first compound max 10 µM, partner max 1 µM) | -0.042 | -0.0795 | 0.0309 | -0.0767 | 0.0006 | 0.0279 | 0.0934 | 0.0041 | -0.0923 | -0.0947 | -0.056 | -0.0154 | -0.0312 | -0.0891 | -0.0654 | 0.0127 | -0.0084 | -0.0367 | 0.0433 | -0.115
CCN(CCO)CCCOc1ccc2c(Nc3cc(CC(=O)Nc4cccc(F)c4)[nH]n3)ncnc2c1 [AZD2811] + C[C@@H]1COCCN1C2=NC(=NC(=C2)C3(CC3)[S@](=N)(=O)C)C4=C5C=CNC5=NC=C4 [AZD6738] (first compound max 1 µM, 7x7, partner max 10 µM) | -0.0668 | -0.0834 | 0.0291 | -0.0567 | 0.0322 | -0.0514 | -0.0468 | -0.0382 | -0.0116 | -0.061 | -0.0105 | -0.0215 | -0.0582 | -0.0567 | -0.0449 | -0.0341 | -0.0875 | -0.0764 | -0.0178 | 0.105
CN(CCO)CC[C@H](CSc1ccccc1)Nc1ccc(S(=O)(=O)NC(=O)c2ccc(N3CCC([C@@H](O)c4ccccc4-c4ccc(Cl)cc4)CC3)cc2)cc1S(=O)(=O)C(F)(F)F [AZD4320] + C1CN(CCC1(C(=O)N[C@@H](CCO)C2=CC=C(C=C2)Cl)N)C3=NC=NC4=C3C=CN4 [Capivasertib] (first compound max 1 µM, 7x7, partner max 3 µM) | -0.0435 | -0.0637 | -0.0545 | -0.0434 | 0.0721 | -0.155 | -0.0203 | 0.0065 | -0.0525 | -0.053 | -0.0171 | -0.0157 | -0.0438 | -0.0347 | -0.0441 | -0.0088 | -0.0244 | 0.0154 | 0.0027 | 0.0157
CC1(C)CCC(CN2CCN(c3ccc(C(=O)NS(=O)(=O)c4ccc(NCC5CCOCC5)c([N+](=O)[O-])c4)c(Oc4cnc5[nH]ccc5c4)c3)CC2)=C(c2ccc(Cl)cc2)C1 [Venetoclax] + C[C@@H](Nc1cc(F)cc(F)c1)c1cc(C(=O)N(C)C)cc2c(=O)cc(N3CCOCC3)oc12 [AZD8186] (first compound max 1 µM, 7x7, partner max 3 µM) | -0.0484 | -0.0637 | -0.068 | 0.0204 | 0.0138 | -0.024 | -0.0587 | 0.0358 | 0.0384 | 0.0065 | 0.0094 | 0.044 | -0.0376 | -0.0241 | -0.0186 | -0.007 | 0.0075 | -0.024 | 0.037 | 0.0235
Cc1c2c(nn1C)CSCc1cc(n(C)n1)CSc1cc(c3ccccc3c1)OCCCc1c(C(=O)O)n(C)c3c-2c(Cl)ccc13 [AZD5991] + C1CN(CCC1(C(=O)N[C@@H](CCO)C2=CC=C(C=C2)Cl)N)C3=NC=NC4=C3C=CN4 [Capivasertib] (first compound max 1 µM, 7x7, partner max 3 µM) | -0.0722 | -0.0548 | -0.0384 | -0.0239 | 0.0417 | -0.0111 | -0.0025 | 0.0095 | -0.0178 | -0.0404 | -0.0068 | 0.0165 | -0.0102 | 0.0375 | 0.0421 | -0.0168 | -0.0055 | -0.0011 | 0.0079 | -0.0471
CC1(C)CCC(CN2CCN(c3ccc(C(=O)NS(=O)(=O)c4ccc(NCC5CCOCC5)c([N+](=O)[O-])c4)c(Oc4cnc5[nH]ccc5c4)c3)CC2)=C(c2ccc(Cl)cc2)C1 [Venetoclax] + C=CCn1c(=O)c2cnc(Nc3ccc(N4CCN(C)CC4)cc3)nc2n1-c1cccc(C(C)(C)O)n1 [AZD1775] (first compound max 1 µM, partner max 1 µM) | -0.0295 | -0.0031 | 0.0197 | -0.0404 | -0.0349 | -0.0083 | 0.0509 | -0.0814 | 0.0303 | 0.0286 | 0.0832 | -0.0285 | -0.0085 | -0.0588 | 0.0742 | 0.0499 | -0.0214 | 0.0294 | 0.0368 | -0.0104
CN(CCO)CC[C@H](CSc1ccccc1)Nc1ccc(S(=O)(=O)NC(=O)c2ccc(N3CCC([C@@H](O)c4ccccc4-c4ccc(Cl)cc4)CC3)cc2)cc1S(=O)(=O)C(F)(F)F [AZD4320] + C[C@@H]1COCCN1C2=NC(=NC(=C2)C3(CC3)[S@](=N)(=O)C)C4=C5C=CNC5=NC=C4 [AZD6738] (first compound max 1 µM, 7x7, partner max 10 µM) | -0.0178 | -0.0547 | -0.021 | -0.0203 | 0.0292 | -0.0298 | 0.0245 | -0.0426 | -0.0311 | -0.0367 | 0.0494 | -0.0472 | -0.042 | -0.0197 | 0.0161 | -0.0097 | -0.0395 | 0.0007 | 0.0338 | -0.0241
CS(=O)(=O)CCNCc1ccc(-c2ccc3ncnc(Nc4ccc(OCc5cccc(F)c5)c(Cl)c4)c3c2)o1 [Lapatinib] + C[C@@H](Oc1cc(-c2cnn(C3CCNCC3)c2)cnc1N)c1c(Cl)ccc(F)c1Cl [Crizotinib] (first compound max 10 µM, 7x7, partner max 10 µM) | -0.0456 | -0.0975 | 0.0467 | 0.0885 | -0.06 | -0.0441 | 0.024 | -0.0186 | -0.102 | -0.0174 | -0.0172 | -0.0288 | -0.0234 | -0.0252 | -0.0054 | -0.062 | -0.0416 | -0.0598 | -0.0127 | 0.0312
CC1(C)CCC(CN2CCN(c3ccc(C(=O)NS(=O)(=O)c4ccc(NCC5CCOCC5)c([N+](=O)[O-])c4)c(Oc4cnc5[nH]ccc5c4)c3)CC2)=C(c2ccc(Cl)cc2)C1 [Venetoclax] + Cn1cnc2c(F)c(Nc3ccc(Br)cc3Cl)c(C(=O)NOCCO)cc21 [Selumetinib] (first compound max 1 µM, 7x7, partner max 3 µM) | -0.0525 | -0.0351 | -0.0187 | -0.0106 | 0.0007 | -0.0184 | 0.108 | 0.0355 | -0.0697 | -0.0484 | 0.009 | -0.0478 | -0.042 | -0.0243 | -0.0202 | 0.027 | -0.0154 | -0.0125 | 0.0187 | 0.0329
